Patent publication US11883441B2, “Compositions and methods for inhibiting seizures” (The Regents of the University of California, priority 2016, dated 2024)

Tests used:
[1] = tested on: Swiss Webster mice; assay: 6-Hz psychomotor seizure assay; format: in vivo, mouse
Method: All subsequent experimental cohorts contained male mice. One drop (˜50 ul) of 0.5% tetracaine hydrochloride ophthalmic solution was applied to the corneas of each mouse 10-15 min before stimulation. Corneal electrodes were coated with a thin layer of electrode gel (Parker Signagel). A constant-current current device (ECT Unit 57800, Ugo Basile) was used to deliver current at 3 sec duration, 0.2 ms pulse-width and 6 pulses/s frequency. CC50 (the intensity of current required to elicit seizures in 50% of the experimental group) was measured as a metric for seizure susceptibility. […] Each mouse was seizure-tested only once, and thus at least n>6 mice were used to adequately power each experiment group. To determine CC50s for each experimental group, 24 mA currents were administered to the first mouse per experimental group per cohort, followed by fixed increases or decreases by 2 mA intervals. […] Locomotor behavior was recorded using Ethovision XT software (Noldus) and quantitative measures for falling, tail dorsiflexion (Straub tail), forelimb clonus, eye/vibrissae twitching and behavioral remission were scored manually. […] Latency to exploration (time elapsed from when an experimental mouse is released into the observation cage (after corneal stimulation) to its first lateral movement) was scored using Ethovision and manually with an electronic timer. […]

[2] = tested on: P. merdae; assay: Cross-feeding in vitro assay, P. merdae growth and viability; format: cell-based; conditions: pre-treatment 500 uM, 2 hours, pilot experiments
Method: (§1) Cross-feeding was measured as previously described. A. muciniphila was embedded at 2×10^6 cfu/ml in 5 ml pre-reduced CD or KD-based liquid media supplemented with 1% agar at the bottom of an anaerobic tube, and P. merdae was overlaid above it at 6×10^6 cfu/ml in 5 ml pre-reduced M9 minimal media. Diet-based media were generated by aseptically suspending mouse KD vs. CD diets, described above, to 2 kcal/ml in M9 media. Pilot experiments confirmed no ectopic translocation of embedded A. muciniphila from the agar compartment into the above M9 liquid compartment. For each time point, aliquots were taken from the top and bottom compartments, plated in a dilution series in rich media (RCM for P. merdae and BHI+0.05% mucins for A. muciniphila), and colonies were counted. For GGsTop pre-treatment experiments, P. merdae was incubated with 500 uM GGsTop vs vehicle in RCM media at 37° C. for 2 hours and then washed with sterile media.

[3] = tested on: Kcna1−/− mice; assay: Kcna1 seizure recordings (EEG); format: in vivo, mouse; conditions: CD-fed SPF Kcna1−/− mice; 13.3 mg/kg oral gavage every 12 hours
Method: EEG Implantation and Recovery. EEGs were recorded from male and female Kcna1^−/− mice at 6-7 weeks of age. Kcna1^+/+ littermates were used as controls. […] Data presented include both sexes. Mice were anesthetized with isoflurane (5% induction, 2% maintenance) and eye ointment applied to each eye. Fur was removed along the head, and the area was cleaned with three alternative scrubs of chlorohexidine and 70% isopropanol. In a biosafety cabinet, mice were positioned in a stereotaxic apparatus (Harvard Biosciences) and 1 mg/kg lidocaine+1 mg/kg bupivacaine was applied locally along the incision site. […]
During EEG recordings animals were freely moving and maintained on experimental diet. […] Simultaneous video recordings of behavioral seizures were correlated with EEG recordings and scored based on an adapted Racine scale and defined by 5 stages: 1) myoclonic jerk, 2) head stereotypy and facial clonus, 3) bilateral and alternating forelimb/hindlimb clonus, 4) rearing and falling, and 5) generalized tonic-clonic episodes. Data were analyzed by a blinded researcher using Neuroscore CNS Software (DSI). EEG signals were filtered using a 10 Hz high pass filter, and seizure events were detected by blinded manual scoring. […]
For wild type mice: 4-week old SPF Swiss Webster mice were fed CD ad libitum for 14 days. […] Seizures were recorded over 3 days by EEG beginning 2 hours after the final gavage. […]

[4] = tested on: A. muciniphila; assay: Cross-feeding in vitro assay, A. muciniphila growth; format: cell-based, Akkermansia muciniphila; conditions: exposed to P. merdae pre-treated with 500 uM for 2 hours; 24 hours after incubation; vs vehicle-treated P. merdae
Method: as §1

[5] = tested on: gamma-glutamyltranspeptidase (GGT); assay: GGT activity assay in fecal samples; format: biochemical; conditions: fecal samples exposed in vitro, 500 uM
Method: GGT activity was measured as previously described in van der Stel, Frontiers in Microbiology (6), 567 (2015). For anaerobic cultures, bacteria were seeded at 3×10^5 cfu/ml in CD- and KD-based media. 1 ml bacterial suspension was pelleted and frozen at −80° C. for 1 hr. Separate aliquots of the same suspension were plated in BHI mucin agar media or RCM and incubated at 37° C. in a Coy anaerobic chamber for later data normalization by bacterial cfu. Pellets were then resuspended in 250 ul lysis buffer (50 mM Tris-HCl with 1 ug/ml lysozyme) and incubated on ice for 30 min. For fecal samples, one pellet was weighed and homogenized in 1 ml lysis buffer. Bacterial and fecal suspensions were then sonicated (QSonica 125) and centrifuged at 12000×g for 10 min at 4° C. […] Absorbance at 405 nm denoting production of 3-carboxy-4-nitroaniline was measured every minute for 1 hr at 37° C. using an automated multimode plate reader (Biotek Synergy H1).
To gain insight into whether the KD and interactions between A. muciniphila and Parabacteroides spp. suppressed bacterial gamma-glutamylation in vivo, GGT activity was measured in fecal samples collected from SPF or A. muciniphila and Parabacteroides spp.-enriched mice fed the CD or KD.

Row | Compound | Protection against 6-Hz seizures / seizure threshold ([1]; Abx-treated SPF mice gavaged with 10^9 cfu bacteria, fed KD, tested at 14 days) | P. merdae viability [2] | Seizures per day [3] | A. muciniphila growth [4] | GGT activity signal of fecal samples [5] | Seizure threshold ([1]; SPF CD mice gavaged for 3 days, 13.3 mg/kg every 12 hours)
1 | Bifidobacterium longum | no effect | – | – | – | – | –
2 | COP(=O)(CCC(N)C(=O)O)Oc1cccc(CC(=O)O)c1 (stereo not drawn) [GGsTop, 3-[[(3-amino-3-carboxypropyl)methoxyphosphinyl]oxy]benzeneacetic acid] | – | no significant effect | significant decrease in seizures per day | increased growth | eliminated the detected signals | increases in seizure thresholds
